Data taken from US9403804B2, “Inhibitors of c-fms kinase” (Janssen Pharmaceutica NV, priority 2006, dated 2016).
pIC50: −log10 of the molar value.

Columns and labels:
[1] = system: mouse bone-marrow derived macrophages (BMDM); assay: CSF-1-driven mouse bone-marrow derived macrophages proliferation assay (BrDU incorporation); assay type: cell-based; conditions: 30 hrs culture, read-out: mCSF driven proliferation BMDM (Mouse) IC-50
Experimental: CSF-1-Driven Mouse Bone-Marrow Derived Macrophages Assay
Macrophages are derived by culturing mouse bone marrow in alpha-MEM supplemented with 10% FCS and 50 ng/ml recombinant mouse CSF-1 in bacteriologic dishes. On the sixth day, macrophages are detached from dishes, washed, and resuspended to 0.05 million cells/ml in alpha-MEM containing 10% FCS. One hundred ul of cell suspension are distributed per well into 96 well culture plates. Wells are further supplemented with the addition of 50 ul media containing 15 ng/ml CSF-1, 3 uM Indomethacin, and 3× of a dilution series of test compounds. The cells are cultured for 30 hrs at 37 degrees and 5% CO2. During the final six hours, cultures are supplemented with an additional 30 ul of media containing a 1:500 dilution of bromodeoxyuridine (BrDU). At the end of the culture period, the plates are spun at 1000 RPM for 1 minute and 130 ul of media is removed with a pipet and replaced with 150 ul of fixative solution for 1 hour @ room temperature. The fixative is then dispelled from the plates and the plates allowed to air dry. Incorporation of BrDU into the fixed, dried cells is quantified using a specific ELISA.

[2] = target: c-fms (Homo sapiens (Human), UniProt P07333); assay: Autophosphorylation, fluorescence polarization competition immunoassay for c-fms inhibition; assay type: biochemical; conditions: averages of three independent measurements; read-out: 1 nM c-fms; peptide Pi assay IC-50
c-fms, sequence (P07333 20-972): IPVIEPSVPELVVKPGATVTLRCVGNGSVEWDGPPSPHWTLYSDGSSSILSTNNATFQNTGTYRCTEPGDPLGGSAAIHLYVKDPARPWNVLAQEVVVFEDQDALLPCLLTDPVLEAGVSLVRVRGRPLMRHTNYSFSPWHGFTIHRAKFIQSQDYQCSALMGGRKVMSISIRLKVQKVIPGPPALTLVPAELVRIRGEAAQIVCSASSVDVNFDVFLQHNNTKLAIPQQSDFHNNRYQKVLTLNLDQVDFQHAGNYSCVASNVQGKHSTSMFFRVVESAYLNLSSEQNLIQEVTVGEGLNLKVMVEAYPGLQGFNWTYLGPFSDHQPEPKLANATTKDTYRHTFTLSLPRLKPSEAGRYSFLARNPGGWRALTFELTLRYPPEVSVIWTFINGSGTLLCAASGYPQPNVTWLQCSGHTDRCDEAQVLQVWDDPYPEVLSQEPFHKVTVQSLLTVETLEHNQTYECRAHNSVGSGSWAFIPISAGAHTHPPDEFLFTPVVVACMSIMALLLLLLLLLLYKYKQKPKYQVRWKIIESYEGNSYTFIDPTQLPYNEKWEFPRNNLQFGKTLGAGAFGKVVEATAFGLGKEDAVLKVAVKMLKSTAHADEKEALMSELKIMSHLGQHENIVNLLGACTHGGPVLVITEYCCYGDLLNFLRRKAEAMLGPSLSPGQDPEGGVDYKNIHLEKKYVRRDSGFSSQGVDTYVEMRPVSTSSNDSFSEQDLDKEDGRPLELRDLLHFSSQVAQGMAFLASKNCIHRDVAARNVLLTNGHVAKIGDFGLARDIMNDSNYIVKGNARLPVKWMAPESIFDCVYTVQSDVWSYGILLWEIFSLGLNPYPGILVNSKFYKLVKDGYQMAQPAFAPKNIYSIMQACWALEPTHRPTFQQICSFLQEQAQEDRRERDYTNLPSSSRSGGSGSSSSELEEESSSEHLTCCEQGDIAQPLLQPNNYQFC
Experimental: Fluorescence Polarization Competition Immunoassay
The assay buffer used was 100 mM 4-(2-hydroxyethyl)piperazine 1-ethanesulfonic acid (HEPES), pH 7.5, 1 mM 1,4-dithio-DL-threitol (DTT), 0.01% (v/v) Tween-20. Compounds were diluted in assay buffer containing 4% dimethylsulfoxide (DMSO) just prior to the assay. […] The kinase reaction was initiated by adding 2 μL of 5 mM ATP (Sigma) in assay buffer. […] Control reactions were ran in each plate: in positive and negative control wells, assay buffer (made 4% in DMSO) was substituted for the compound; in addition, positive control wells received 1.2 μL of 50 mM ethylenediaminetetraaceticacid (EDTA).
The plates were incubated at room temperature for 45 min. At the end of the incubation, the reaction was quenched with 1.2 μL of 50 mM EDTA (EDTA was not added to the positive control wells at this point; see above). Following a 5-min incubation, each well received 10 μL of a 1:1:3 mixture of anti-phosphotyrosine antibody, 10×, PTK green tracer, 10× (vortexed), FP dilution buffer, respectively (all from PanVera, cat. # P2837). The plate was covered, incubated for 30 min at room temperature and the fluorescence polarization was read on the Analyst. The instrument settings were: 485 nm excitation filter; 530 nm emission filter; Z height: middle of well; G factor: 0.93. […] The reported IC50 values are averages of three independent measurements.

| SMILES | pIC50 [2] | pIC50 [1] |
| --- | --- | --- |
| CC1(C)CC=C(c2cc(C3(O)CCCCC3)ccc2NC(=O)c2nc(C#N)c[nH]2)CC1 [Example 1, 4-Cyano-1H-imidazole-2-carboxylic acid [2-(4,4-dimethyl-cyclohex-1-enyl)-4-(1-hydroxy-cyclohexyl)-phenyl]-amide] | 8.23 | 7.14 |
| COCCNC1(c2ccc(NC(=O)c3nc(C#N)c[nH]3)c(C3=CCC(C)(C)CC3)c2)CCCCC1 [Example 43, 4-Cyano-1H-imidazole-2-carboxylic acid {2-(4,4-dimethyl-cyclohex-1-enyl)-4-[1-(2-methoxy-ethylamino)-cyclohexyl]-phenyl}-amide] | 8.54 | 6.95 |
| CC1(C)CC=C(c2cc([C@]3(O)CC[C@@H](N4CCOCC4)CC3)ccc2NC(=O)c2nc(C#N)c[nH]2)CC1 [Example 44, 4-Cyano-1H-imidazole-2-carboxylic acid [2-(4,4-dimethyl-cyclohex-1-enyl)-4-(cis-1-hydroxy-cis-4-morpholin-4-yl-cyclohexyl)-phenyl]-amide] |  | 8.55 |
| CC1(C)CC=C(c2cc([C@]3(O)CC[C@H](N4CCOCC4)CC3)ccc2NC(=O)c2nc(C#N)c[nH]2)CC1 [Example 45, 4-Cyano-1H-imidazole-2-carboxylic acid [2-(4,4-dimethyl-cyclohex-1-enyl)-4-(cis-1-hydroxy-trans-4-morpholin-4-yl-cyclohexyl)-phenyl]-amide] |  | 8.07 |

Second part, led by results:

| pIC50 [2] | SMILES | pIC50 [1] |
| --- | --- | --- |
| 9.19 | CC1(C)CC=C(c2cc([C@]3(O)CC[C@@H](C(=O)O)CC3)ccc2NC(=O)c2ncc(C#N)[nH]2)CC1 [Example 2, 4-[4-[(5-Cyano-1H-imidazole-2-carbonyl)-amino]-3-(4,4-dimethyl-cyclohex-1-enyl)-phenyl]-cis-4-hydroxy-cyclohexanecarboxylic acid] | 7.06 |
| 8.64 | CC1(C)CC=C(c2cc(C3(O)CCCC3)ccc2NC(=O)c2nc(C#N)c[nH]2)CC1 [Example 3, 4-Cyano-1H-imidazole-2-carboxylic acid [2-(4,4-dimethyl-cyclohex-1-enyl)-4-(1-hydroxy-cyclopentyl)-phenyl]-amide] | 7.93 |
| 8.02 | CC1(C)CC=C(c2cc(C3(C#N)CC3)ccc2NC(=O)c2nc(C#N)c[nH]2)CC1 [Example 4, 4-Cyano-1H-imidazole-2-carboxylic acid [4-(1-cyano-cyclopropyl)-2-(4,4-dimethyl-cyclohex-1-enyl)-phenyl]-amide] | 7.00 |
| 7.70 | CC1(C)CC=C(c2cc(C3(C#N)CCCCC3)ccc2NC(=O)c2nc(C#N)c[nH]2)CC1 [Example 14, 4-Cyano-1H-imidazole-2-carboxylic acid [4-(1-cyano-cyclohexyl)-2-(4,4-dimethyl-cyclohex-1-enyl)-phenyl}-amide] | 6.82 |
| 8.72 | CC1(C)CC=C(c2cc(C3CCC(N4CCOCC4)CC3)ccc2NC(=O)c2nc(C#N)c[nH]2)CC1 (stereo not drawn) [Example 27, 4-Cyano-1H-imidazole-2-carboxylic acid [2-(4,4-dimethyl-cyclohex-1-enyl)-4-(4-morpholin-4-yl-cyclohexyl)-phenyl]-amide] | 7.80 |
| 9.00 | CN1CCN(C2CCC(c3ccc(NC(=O)c4nc(C#N)c[nH]4)c(C4=CCC(C)(C)CC4)c3)CC2)CC1 (stereo not drawn) [Example 28, 4-Cyano-1H-imidazole-2-carboxylic acid {2-(4,4-dimethyl-cyclohex-1-enyl)-4-[4-(4-methyl-piperazin-1-yl)-cyclohexyl]-phenyl}-amide] | 7.99 |
